Laboratory results from PubChem BioAssay (NCI).
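Tested at 5 concentrations; 48 h exposure; 96-well plates; endpoints linearly interpolated, else capped at highest concentration. Abbreviation: GI50, concentration required for 50% inhibition of growth. TGI marks complete inhibition of growth.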

Assays:
Test in all cases: inhibition of tumour cell growth, NCI panel, 48 h
[1] = system: SW-620 colon
[2] = system: CCRF-CEM leukemia
[3] = system: SN12C renal
[4] = system: MALME-3M melanoma
[5] = system: HT29 colon
[6] = system: HOP-62 NSCLC
[7] = system: M14 melanoma
[8] = system: MOLT-4 leukemia
[9] = system: OVCAR-8 ovarian
[10] = system: OVCAR-4 ovarian

Row | Compound | GI50 [1] | TGI [1] | GI50 [2] | TGI [2] | GI50 [3] | TGI [3] | GI50 [4] | TGI [4] | GI50 [5] | TGI [5] | GI50 [6] | TGI [6] | GI50 [7] | TGI [7] | GI50 [8] | TGI [8] | GI50 [9] | TGI [9] | GI50 [10] | TGI [10]
1 | COc1cc2nc(-c3ccc(C(F)(F)F)cc3)cc(OCCCN3CCCC3)c2cc1OC | 2.59 µM | 29.6 µM | 1.08 µM | 9.92 µM | 0.558 µM | > 42.7 µM | 1.66 µM | 5.59 µM | 0.429 µM | 5.85 µM | 1.42 µM | 18.5 µM | 0.303 µM | 1.05 µM | 1.42 µM | 5.09 µM | 0.826 µM | > 49.7 µM | 3.1 µM | > 86.7 µM
2 | Cc1ccccc1/C=C/C(=O)c1ccccc1 |  | > 10 µM |  | 69.3 µM |  | > 10 µM |  | 35 µM |  | 47.7 µM |  | 30.8 µM |  | 29.6 µM |  | 60.7 µM |  | 63.9 µM |  | 33.2 µM
3 | CC(C)Oc1ccc(C(=O)Cn2ccnc2)cc1-n1c(CN2CCN(C(=O)COc3ccc(Cl)cc3)CC2)nc2ccccc2c1=O | 13.4 µM | 50.9 µM | 11 µM | > 100 µM | 14.6 µM | 33.6 µM | 12.5 µM | 30.3 µM | 14.8 µM | 44.9 µM | 15 µM | 44.9 µM | 14 µM | 32.6 µM | 7.55 µM | > 71.8 µM | 15.5 µM | 53.2 µM | 3.6 µM | > 64.8 µM
4 | CCCCCCCCCCCC1CC(=O)NCCCN(C)CCCCN(C)CCCN1C (configuration not stated) |  | 2.35 µM |  | 2.85 µM |  | 3.14 µM |  | 3.33 µM |  | 2.97 µM |  | 3.04 µM |  | 3.24 µM |  | 7.73 µM |  | 3.33 µM |  | 3.12 µM
5 | Cc1cccc(/C(Br)=C2/OC(=O)c3ccccc32)c1 |  | > 100 µM |  | > 100 µM |  | > 100 µM |  | > 100 µM |  | > 100 µM |  | > 100 µM |  | > 100 µM |  | > 100 µM |  | > 100 µM |  | > 100 µM
6 | O=c1c2ccccc2sc2ccccc12 |  | > 100 µM |  | > 100 µM |  | > 100 µM |  | > 100 µM |  | > 100 µM |  | > 100 µM |  | > 100 µM |  | > 100 µM |  | > 100 µM |  | > 100 µM
7 | CCn1c(-c2nonc2N)nc2ccncc21 | > 25 µM | > 25 µM | > 25 µM | > 25 µM | > 25 µM | > 25 µM | > 25 µM | > 25 µM | > 25 µM | > 25 µM | > 25 µM | > 25 µM | > 25 µM | > 25 µM | > 25 µM | > 25 µM | > 25 µM | > 25 µM | > 25 µM | > 25 µM
8 | CC1OC(c2ccc3c(c2O)C(=O)C2=C(C3=O)C3(O)C(=O)CC(C)(O)CC3(O)C=C2)CC(O)C1O (configuration not stated) |  | 21.7 µM |  | 5.27 µM |  | 28.2 µM |  | 12.8 µM |  | 19.6 µM |  | 60.7 µM |  | 30.7 µM |  | 15.3 µM |  | 51.5 µM |  | 27.2 µM
9 | C=C1C2Oc3ccccc3C1N(c1ccccc1)O2 (configuration not stated) |  | > 100 µM |  | 89.5 µM |  | 88.1 µM |  | > 100 µM |  | 67.5 µM |  | > 100 µM |  | 67.1 µM |  | > 100 µM |  | 33.2 µM |  | 75.3 µM
10 | COc1cccc(COc2cc(-n3cnc4ccccc43)sc2C(N)=O)c1 | > 11.1 µM | > 25 µM | 1.15 µM | > 25 µM | > 20.5 µM | > 25 µM | > 25 µM | > 25 µM | 2.03 µM | > 25 µM | 5.34 µM | > 25 µM | > 25 µM | > 25 µM | > 14.8 µM | > 25 µM | 11.9 µM | > 25 µM | > 25 µM | > 25 µM
11 | COc1ccccc1NC(=O)/C(=C/c1ccccc1)C(C)=O |  | > 100 µM |  | > 100 µM |  | > 100 µM |  | > 100 µM |  | > 100 µM |  | > 100 µM |  | 67.6 µM |  | > 100 µM |  | > 100 µM |  | > 100 µM
12 | CC(C)(C)OC(=O)NC1CCCC1=O (configuration not stated) |  | > 100 µM |  | > 100 µM |  | > 100 µM |  | > 100 µM |  | > 100 µM |  | > 100 µM |  | > 100 µM |  | > 100 µM |  | > 100 µM |  | > 100 µM
13 | Cc1cccc(C)c1N1C(=O)C(=O)C(c2nc3ccccc3s2)C(=Nc2cccc3c(=O)[nH][nH]c(=O)c23)C1=O (configuration not stated) |  | > 100 µM |  | > 100 µM |  | > 100 µM |  | > 100 µM |  | > 100 µM |  | > 100 µM |  | > 100 µM |  | > 100 µM |  | > 100 µM |  | > 100 µM
14 | CC1c2ccccc2N=C2SC(=S)N3CCN=C3N21 (configuration not stated) | > 100 µM | > 100 µM | > 100 µM | > 100 µM | > 100 µM | > 100 µM | > 100 µM | > 100 µM | > 100 µM | > 100 µM | > 100 µM | > 100 µM | > 100 µM | > 100 µM | > 100 µM | > 100 µM | > 100 µM | > 100 µM | > 100 µM | > 100 µM
15 | O=S1CSSC1 |  | 31.7 µM |  | 46.2 µM |  | 24.4 µM |  | > 100 µM |  | 31.4 µM |  | 98.6 µM |  | 55.8 µM |  | 43.1 µM |  | 52 µM |  | 33.9 µM
16 | CCOC(=O)N1CCN(CCCCCOc2ccccc2C2CCCCC2)CC1 | 3.08 µM | 9.81 µM | 4.42 µM | 18.4 µM | 6.34 µM | 22.2 µM | 4.91 µM | 19.2 µM | 3.08 µM | 12 µM | 2.52 µM | 8.05 µM | 2.98 µM | 11 µM | 2.92 µM | 13 µM |  |  | 9.2 µM | 22.2 µM
17 | O=C1[C@H]2ON(c3ccccc3)C(c3ccco3)[C@H]2C(=O)N1c1ccc(Cc2ccc(N3C(=O)[C@@H]4ON(c5ccccc5)C(c5ccco5)[C@@H]4C3=O)cc2)cc1 (some centres not stated) |  | > 100 µM |  | > 100 µM |  | > 100 µM |  | > 100 µM |  | > 100 µM |  | > 100 µM |  | > 100 µM |  | > 100 µM |  |  |  | > 100 µM
